Assay results: US20120201824A1, “Compositions and Methods for Inhibiting an Oncogenic Protein to Enhance Immunogenicity” (priority 2008, published 2012)

How the values were obtained:
CD274 protein = experiment: Flow cytometry for cell-surface CD274 protein in ALK+ TCL cells; assay type: cell-based, human; conditions: SUDHL-1 cells; rapamycin 300 nM, wortmannin 20 nM, U0126 15 μM, Jak3 inhibitor 1 μM
Protocol: All antibodies were purchased from BD Pharmingen. The stained cells were applied to the flow cytometer (FACSCalibur; Becton Dickinson), and 20,000 events were analyzed. Results of the cell staining are presented as histograms with cell number on the vertical axis and relative fluorescence on the logarithmic horizontal axis. […] Inhibitors of: […] Marzec et al., 2007, Oncogene 26: 813-821; Marzec et al., 2007, Oncogene 26: 5606-5614; Marzec et al., 2008, Cancer Res 68: 1083-1091). A mixture of four STAT3 or STAT5b specific siRNA or non-targeting siRNA (all purchased from Dharmacon) was introduced into cells at 100 nM by lipofection with the hew generation Lipofectamine (DMRIE-C; Invitrogen). The procedure was repeated after 24 hours and the cells were cultured for an additional 24 hours. The cells were harvested at one time point 48 hours after first transfection. Extend of the protein knock-down was examined by Flow Cytometry and RT-PCR.

CD274 mRNA = experiment: RT-PCR for CD274 mRNA in ALK+ TCL cells; assay type: cell-based, human; conditions: SUDHL-1 cells; rapamycin 300 nM, wortmannin 20 nM, U0126 15 μM, Jak3 inhibitor 1 μM
Protocol: Total RNA was isolated using RNeasy Mini kit (Qiagen), treated with DNase I (Invitrogen), and reverse-transcribed by using Thermoscript RT-PCR system (Invitrogen) with random hexamers as cDNA synthesis primers. The following primer pairs were used for the cDNA amplification: β-actin, 5'[…] ID NO: 1) and 5'[…] ID NO: 2); CD274, 5'[…] ID NO: 3) and 5'[…] ID NO: 4). PCR was performed by using Platium […] polymerase (Invitrogen) for 21 cycles comprised of the denaturation step for 20 seconds at 94° C., annealing for 30 seconds at 58° C. and elongation for 30 seconds at 72° C. The PCR products were visualized by ethium bromide staining in 1.5% agarose gel. […] Inhibitors of: […] Marzec et al., 2007, Oncogene 26: 813-821; Marzec et al., 2007, Oncogene 26: 5606-5614; Marzec et al., 2008, Cancer Res 68: 1083-1091). A mixture of four STAT3 or STAT5b specific siRNA or non-targeting siRNA (all purchased from Dharmacon) was introduced into cells at 100 nM by lipofection with the hew generation Lipofectamine (DMRIE-C; Invitrogen). The procedure was repeated after 24 hours and the cells were cultured for an additional 24 hours. The cells were harvested at one time point 48 hours after first transfection. Extend of the protein knock-down was examined by Flow Cytometry and RT-PCR.

SMILES: N#CC(=C(/N)Sc1ccccc1N)/C(C#N)=C(\N)Sc1ccccc1N [U0126]
- CD274 expression on the protein level (flow cytometry) (CD274 protein): no detectable impact
- CD274 expression on the mRNA level (RT-PCR) (CD274 mRNA): no detectable impact
